The source of these data is article PMC10590383, “Repurposing conformational changes in ANL superfamily enzymes to rapidly generate biosensors for organic and amino acids” (Nature Communications, 2023).

A short description of data set [1]: Substrate (ligand) specificity of […]s. The following applies: Supplementary Fig. 3 c; substrate specificity. Type of data set: biochemical. The method, boiled down: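 Purified biosensor protein (0.75 μM) with ligand, 1 mM ATP and 2.5 mM MgCl2 in 100 mM Tris-HCl, pH 7.5, at room temperature. Fluorescence (Ex 460 or 480/Em 510 nm) read each minute for 15 min. Dose-response fitted by 5-parameter logistic; specificity tested with 20 amino acids at 100 μM as normalized ΔF/F0.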

Data set [2] is described as follows: Dose–response curve of purified […] with R-β-phenylalanine. It counts as biochemical. The protocol:
(§1) Fig. 4 Engineering ligand specificity of GrsA-PheA for generating […]s. a The selectivity-conferring code of Phe and Leu A domains. b–f Dose–response curve of purified […]s with increasing concentrations of ligands in 100 mM Tris-HCl buffer (pH=7.5). All data shown are means ± S.D. (n = 3 biologically independent samples). g A series of […] reactions was tested to show the […]’s specificity with 20 proteinogenic amino acids. The values on the heatmap represent the ΔF/F0 value normalized to each […]’s maximal ΔF/F0 value ((ΔF/F0)/maximal ΔF/F0). The concentrations of 20 amino acids were 100 μM. The color indicates the average value of three independent biological replicates after 15 min. All data shown are means ± S.D. (n = 3 biologically independent samples). Source data are provided as a Source data file.
(§2) The study conducted dose–response curve, substrate specificity, and fluorescent spectrum analyses in 100-mM Tris buffer (pH = 7.5), while pH stability experiments were performed in 100-mM Tris buffer at three different pH values (6.5, 7.5, and 8.5) at room temperature. […] protein at a concentration of 0.75 μM, various small molecule concentrations, 1 mM ATP, and 2.5 mM MgCl2 were used in the experiments. Fluorescent signals were detected using a Microplate Reader (Synergy H4, Bio Tek) at an excitation/emission wavelength of 460 nm/510 nm or 480 nm/510 nm. The dose-response curve was determined immediately after the addition of the analyte. The total duration of the measurement was 15 min, with readings taken at one-minute intervals. The dose-response curve was plotted using the fluorescence values obtained after achieving stability in the fluorescence signal. The dose-response curves were fitted using the logistic model LOGISTIC5 available in Origin 2021, which could provide a more adequate fit to asymmetric dose-response data[62],[63]. Excitation spectra were scanned from 300 to 540 nm with a step size of 5 nm, and the emission wavelength was set to 560 nm. Emission spectra were scanned from 470 to 700 nm with a step size of 5 nm, and the excitation wavelength was set to 450 nm. The thermal stability of […] was analyzed using the UNcle multifunctional protein stability analysis system. Measurements were performed in 20 mM MOPS buffer with 2 mM DTT at a sample concentration of 1 mg/mL. Absolute fluorescence quantum yields were measured using an absolute photoluminescence quantum yield spectrometer (FS5, Edinburgh).

The target in another data set is T1, GECFINDER-His1 (Bacillus licheniformis, UniProt O68008).
T1 construct: gene bacC; BacC-HisA-PCP; cpEGFP inserted, linkers GA-HC
Briefly: Fluorescence dose-response of purified cpEGFP sensors (0.75 uM) in 100 mM Tris-HCl pH 7.5, room temperature, 1 mM ATP, 2.5 mM MgCl2; excitation 400, 460 or 480 nm by sensor, emission 510 nm; logistic five-parameter fit. Type of data set: biochemical. To be noted: n = 3. The protocol: (§3) Fig. 3 Dose–response curves and fluorescence spectrums of […]s. a, c, e, g, i, k Dose–response curve of purified […]s with increasing concentrations of ligand in 100 mM Tris-HCl buffer (pH=7.5). The normalized ΔF/F0 value increased after ligand binding. All data shown are mean ± S.D. (n = 3 biologically independent samples). b, d, f, h, j, l The fluorescence spectra of […]s changed as the ligand concentration increased. All data shown are mean ± S.D. (n = 3 biologically independent samples). Source data are provided as a Source data file.
as §2

A further data set deals with T2, GECFINDER-His2 (Bacillus licheniformis, UniProt O68008).
T2 construct: gene bacC; BacC-HisA-PCP; cpEGFP inserted, linkers GG-PV
The data set is described as above. It counts as biochemical. The following applies: n = 3. On the procedure:
as §3, §2

Data set [3] can be described thus: Response of purified […] to proline. It counts as biochemical. The protocol:
as §3, §2

Data set [4] can be described thus: Fluorescence spectra / excitation wavelength scan of […]s. To be noted: Wavelength 300 nm. It counts as physicochemical. On the procedure:
Fig. 3 Dose–response curves and fluorescence spectrums of […]s. a, c, e, g, i, k Dose–response curve of purified […]s with increasing concentrations of ligand in 100 mM Tris-HCl buffer (pH=7.5). […] All data shown are mean ± S.D. (n = 3 biologically independent samples). Source data are provided as a Source data file.
as §2

The next data set concerns the target GECFINDER-SβF. As to the kind of experiment: Fluorescence dose-response of purified binding-pocket-engineered sensors (0.75 uM) in 100 mM Tris-HCl pH 7.5, room temperature, 1 mM ATP, 2.5 mM MgCl2, excitation 460 or 480 nm, emission 510 nm; logistic five-parameter fit. It counts as biochemical. To be noted: n = 3. On the procedure:
as §1, §2

The target of another data set is T3, GECFINDER-Ile2 (Bacillus licheniformis, UniProt O68006).
T3 construct: gene bacA; BacA-IleA-PCP; cpEGFP inserted, linkers RY-PG
Briefly: Fluorescence dose-response of purified cpEGFP sensors (0.75 uM) in 100 mM Tris-HCl pH 7.5, room temperature, 1 mM ATP, 2.5 mM MgCl2; excitation 400, 460 or 480 nm by sensor, emission 510 nm; logistic five-parameter fit. To be noted: n = 3. It counts as biochemical. The protocol:
as §3, §2

The target of a further data set is T4, GECFINDER-Ile1 (Bacillus licheniformis, UniProt O68006).
T4 construct: gene bacA; BacA-IleA-PCP; cpEGFP inserted, linkers VY-CA
The data set is described as above. To be noted: n = 3. It counts as biochemical. The protocol:
as §3, §2

Another data set addresses T5, GECFINDER-Ile3 (Bacillus licheniformis, UniProt O68006).
T5 construct: gene bacA; BacA-IleA-PCP; cpEGFP inserted, linkers VY-LS
Described as above. It counts as biochemical. The following applies: n = 3. On the procedure:
as §3, §2

The target of the next data set is T6, GECFINDER-Phe3 (Aneurinibacillus migulanus, UniProt P0C061).
T6 construct: gene grsA; GrsA-PheA-PCP; cpEGFP inserted in hinge B, linkers VF-QS
T6 sequence (P0C061 1-617): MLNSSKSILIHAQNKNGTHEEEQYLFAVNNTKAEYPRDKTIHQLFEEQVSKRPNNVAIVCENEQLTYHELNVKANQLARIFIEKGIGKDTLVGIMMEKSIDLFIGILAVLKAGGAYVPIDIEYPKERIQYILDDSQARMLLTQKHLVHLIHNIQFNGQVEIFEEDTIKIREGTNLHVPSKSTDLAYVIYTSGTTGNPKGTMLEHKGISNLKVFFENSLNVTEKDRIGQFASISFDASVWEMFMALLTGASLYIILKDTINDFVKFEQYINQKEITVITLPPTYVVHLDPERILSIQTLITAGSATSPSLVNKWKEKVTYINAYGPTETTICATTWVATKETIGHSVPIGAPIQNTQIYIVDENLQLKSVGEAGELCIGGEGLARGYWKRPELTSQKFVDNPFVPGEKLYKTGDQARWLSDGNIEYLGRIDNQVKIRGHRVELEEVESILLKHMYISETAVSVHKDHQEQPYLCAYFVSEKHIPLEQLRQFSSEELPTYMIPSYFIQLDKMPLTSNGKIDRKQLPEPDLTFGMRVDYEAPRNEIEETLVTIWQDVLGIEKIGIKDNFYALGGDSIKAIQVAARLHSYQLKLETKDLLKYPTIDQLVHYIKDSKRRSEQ
Described as above. It counts as biochemical. The following applies: n = 3. The protocol:
as §3, §2

The next data set deals with T7, GECFINDER-Tyr (Aneurinibacillus migulanus, UniProt P0C061, W239S).
T7 construct: gene grsA
As to the kind of experiment: Fluorescence dose-response of purified binding-pocket-engineered sensors (0.75 uM) in 100 mM Tris-HCl pH 7.5, room temperature, 1 mM ATP, 2.5 mM MgCl2, excitation 460 or 480 nm, emission 510 nm; logistic five-parameter fit. The following applies: n = 3. It counts as biochemical. On the procedure: as §1, §2

In a further data set the target is T8, GECFINDER-Glu (Bacillus subtilis, UniProt P39845).
T8 construct: gene ppsA; PpsA-GluA-PCP; cpEGFP inserted, linkers HS-WL
Briefly: Fluorescence dose-response of purified cpEGFP sensors (0.75 uM) in 100 mM Tris-HCl pH 7.5, room temperature, 1 mM ATP, 2.5 mM MgCl2; excitation 400, 460 or 480 nm by sensor, emission 510 nm; logistic five-parameter fit. It counts as biochemical. The following applies: n = 3. On the procedure: as §3, §2

Structures are written as SMILES.

For `N[C@H](CC(=O)O)c1ccccc1` [R-β-Phe], the “fluorescence response of GECFINDER to each substrate, AVE of 3 repeats” value in data set [1] is 0.4936. In addition, the “AVE, dose-response Fig. 4 f” value in data set [2] (substrate R-β-Phe 0.0001 μM) is -0.0001175; in data set [2] (substrate R-β-Phe 0.001 μM), -0.003533; in data set [2] (substrate R-β-Phe 0.01 μM), -3.814e-5; in data set [2] (substrate R-β-Phe 0.1 μM), 0.008066; in data set [2] (substrate R-β-Phe 1 μM) it was 0.06811; in [2] (substrate R-β-Phe 5 μM), 0.06226. In addition, the “AVE, dose-response Fig. 4 f” value in data set [2] (substrate R-β-Phe 10 μM) is recorded as 0.1204; in data set [2] (substrate R-β-Phe 50 μM), 0.3026; in data set [2] (substrate R-β-Phe 100 μM), 0.3923; in data set [2] (substrate R-β-Phe 500 μM) it was 0.5534; in data set [2] (substrate R-β-Phe 1000 μM), 0.5949; in data set [2] (substrate R-β-Phe 2000 μM), 0.5892.
For `N[C@@H](Cc1c[nH]cn1)C(=O)O` [His, histidine], the figures for the EC50 at GECFINDER-His1 and at GECFINDER-His2 were 10.4 ± 4.74 µM and 13.2 ± 4.26 µM, respectively.
Regarding `O=C(O)[C@@H]1CCCN1` [Pro], the “Dose-response, AVE of Repeat 1-3 (Fig. 3 g)” value in data set [3] (Pro 0.0002 μM) was -7.17e-17; in data set [3] (Pro 0.002 μM) it was 0.0174; in [3] (Pro 0.02 μM), 0.02154; in [3] (Pro 0.2 μM), 0.03875; in [3] (Pro 2 μM), 0.04783; in data set [3] (Pro 20 μM) it was 0.05475. For the same compound, the “Dose-response, AVE of Repeat 1-3 (Fig. 3 g)” value in data set [3] (Pro 100 μM) came out at 0.06466; in data set [3] (Pro 200 μM), 0.07263; in data set [3] (Pro 500 μM) it was 0.09025; in data set [3] (Pro 1000 μM), 0.09711; in data set [3] (Pro 2000 μM) it was 0.09414; in data set [3] (Pro 4000 μM), 0.08171. For the same compound, the “Wavelength scan, AVE of Repeat 1-3 (Fig. 3 h)” value in data set [4] (0.0002 μM Pro) was determined as 1526; in [4] (20 μM Pro), 1565; in data set [4] (2000 μM Pro), 1543.33. Further, the “fluorescence response of GECFINDER to each substrate, AVE of 3 repeats” value in [1] is -0.002038.
Consider `N[C@H](CC(=O)O)c1ccccc1` [R-β-Phe, R-β-phenylalanine], for which, at GECFINDER-SβF, the EC50 is 54.6 ± 7.66 µM.
`CC[C@H](C)[C@H](N)C(=O)O` [Ile, isoleucine]: the EC50 amounted to 221 ± 66.3 µM at GECFINDER-Ile2, 161 ± 32.1 µM at GECFINDER-Ile1 and 186 ± 61 µM on GECFINDER-Ile3.
With `N[C@@H](CC(=O)O)c1ccccc1` [S-β-Phe, S-β-phenylalanine], the figures for the EC50 at GECFINDER-SβF and on GECFINDER-Phe3 were 7.4 ± 0.45 µM and 13.6 ± 1.28 µM, respectively.
As for `N[C@@H](Cc1ccc(O)cc1)C(=O)O` [Tyr, tyrosine], the concentration for a half-maximal effect (EC50) on GECFINDER-Tyr came out at 89.8 ± 6.71 µM; at GECFINDER-Phe3, 225 ± 17.9 µM.
For the compound `N[C@@H](CCC(=O)O)C(=O)O` [Glu, glutamic acid], at GECFINDER-Glu, the concentration for a half-maximal effect (EC50) amounted to 42.9 ± 3.93 µM.

A word on the EC50: it is the concentration at which the effect is half-maximal.
